The values below come from EP2970215B1, “PYRROLIDINE DERIVATIVES, PHARMACEUTICAL COMPOSITIONS CONTAINING THEM, AND THEIR USE IN THERAPY” (AbbVie Deutschland GmbH & Co. KG, priority 2013, dated 2014).

The assay has as its target T1, human GlyT1c transporter (Homo sapiens, UniProt P48067).
T1 construct: expressed in transfected cells; host or cells: CHO cells (recombinant; line hGlyT1c_5_CHO is named for the uptake assay)
T1 sequence (P48067 1-706): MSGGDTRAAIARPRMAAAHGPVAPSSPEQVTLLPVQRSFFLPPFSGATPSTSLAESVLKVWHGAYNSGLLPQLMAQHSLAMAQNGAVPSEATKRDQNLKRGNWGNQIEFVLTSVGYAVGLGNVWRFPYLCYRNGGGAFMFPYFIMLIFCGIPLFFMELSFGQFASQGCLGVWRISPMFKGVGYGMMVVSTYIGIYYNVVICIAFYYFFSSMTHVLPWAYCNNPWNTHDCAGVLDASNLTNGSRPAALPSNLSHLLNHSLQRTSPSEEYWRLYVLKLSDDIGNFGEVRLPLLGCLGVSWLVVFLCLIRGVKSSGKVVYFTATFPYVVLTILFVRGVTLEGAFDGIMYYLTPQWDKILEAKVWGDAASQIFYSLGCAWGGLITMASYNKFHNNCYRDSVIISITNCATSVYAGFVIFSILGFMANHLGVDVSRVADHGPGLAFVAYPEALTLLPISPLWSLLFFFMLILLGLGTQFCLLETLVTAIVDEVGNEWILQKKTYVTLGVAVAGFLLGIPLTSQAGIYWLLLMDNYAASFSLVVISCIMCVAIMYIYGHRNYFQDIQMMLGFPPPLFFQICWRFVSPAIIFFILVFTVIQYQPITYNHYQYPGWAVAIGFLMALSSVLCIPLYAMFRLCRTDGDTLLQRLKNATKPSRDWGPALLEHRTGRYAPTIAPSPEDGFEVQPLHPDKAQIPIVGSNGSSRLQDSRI
The assay can be described thus: Radioligand binding assay using recombinant CHO cell membranes expressing human GlyT1. The source says: 2. Radioligand binding assays using recombinant CHO cell membranes expressing human GlyT1: […]

The mark [1] stands for this setting: radioligand binding to human GlyT1c transporter-expressing membranes.

The structures appear in SMILES notation.

Turning to `CCCc1cc(N[C@H]2CN(S(=O)(=O)c3cn(C)cn3)C[C@@H]2c2ccc(F)cc2)ncn1` [Example 616, N-{(3R,4S)-4-(4-fluorophenyl)-1-[(1-methyl-1H-imidazol-4-yl)sulfonyl]pyrrolidin-3-yl}-6-propylpyrimidin-4-amine], the Ki (usually a dissociation constant, usually derived from enzyme kinetics or from competition with a known ligand) under setting [1] was no more than 1 µM. As to `Cn1ccc(S(=O)(=O)N2C[C@@H](NC(=O)c3cccc(C(F)(F)F)c3Cl)[C@H](c3ccccc3)C2)n1` (relative stereo) [Example 49, 2-chloro-N-{trans-1-[(1-methyl-1H-pyrazol-3-yl)sulfonyl]-4-phenylpyrrolidin-3-yl}-3-(trifluoromethyl)benzamide], the Ki under setting [1] is no more than 10 µM. Same read-out and setting: for `Cn1cnc(S(=O)(=O)N2C[C@@H](NC(=O)c3cccc(C(F)(F)F)c3Cl)[C@H](c3ccccc3F)C2)c1` (relative stereo) [Example 54, 2-chloro-N-{trans-4-(2-fluorophenyl)-1-[(1-methyl-1H-imidazol-4-yl)sulfonyl]pyrrolidin-3-yl}-3-(trifluoromethyl)benzamide] the value was no more than 1 µM.

For `Cn1cnc(S(=O)(=O)N2C[C@@H](Nc3cccc(Cl)c3)[C@H](Oc3ccc(F)cc3)C2)c1` (relative stereo) [Example 378, Trans-N-(3-chlorophenyl)-4-(4-fluorophenoxy)-1-[(1-methyl-1H-imidazol-4-yl)sulfonyl]pyrrolidin-3-amine], the inhibitory constant (Ki) under setting [1] is no more than 10 µM. On to `N#Cc1ccccc1S(=O)(=O)N1C[C@@H](Nc2ccc(F)cc2)[C@H](c2ccccc2)C1` (relative stereo) [Example 529, 2-({Trans-3-[(4-fluorophenyl)amino]-4-phenylpyrrolidin-1-yl}sulfonyl)benzonitrile], for which the Ki under setting [1] was no more than 10 µM. Still for that read-out and setting: for `CCCCN(CCCC)C(=O)[C@@H]1CN(S(=O)(=O)c2cn(C)cn2)C[C@H]1c1ccc(F)cc1` (relative stereo) [Example 636, Trans-N,N-dibutyl-4-(4-fluorophenyl)-1-[(1-methyl-1H-imidazol-4-yl)sulfonyl]pyrrolidine-3-carboxamide] the value was no more than 1 µM; for `CC(=O)CCCC(=O)N[C@H]1CN(S(=O)(=O)c2cn(C)cn2)C[C@@H]1c1ccc(F)cc1` [Example 695, N-{(3R,4S)-4-(4-fluorophenyl)-1-[(1-methyl-1H-imidazol-4-yl)sulfonyl]pyrrolidin-3-yl}-5-oxohexanamide], no more than 10 µM; for `CC(C)COc1cc(N[C@H]2CN(S(=O)(=O)c3cn(C)cn3)C[C@@H]2c2ccccc2)ncn1` [Example 624, N-{(3R,4S)-1-[(1-methyl-1H-imidazol-4-yl)sulfonyl]-4-phenylpyrrolidin-3-yl}-6-(2-methylpropoxy)pyrimidin-4-amine], no more than 1 µM. Regarding `CCCS(=O)(=O)N1C[C@@H](Nc2cccc(C#N)c2)[C@H](c2ccccc2)C1` (relative stereo) [Example 132, 3-{[trans-4-phenyl-1-(propylsulfonyl)pyrrolidin-3-yl]amino}benzonitrile], the Ki under setting [1] is no more than 10 µM. Same read-out and setting: for `Cn1cnc(S(=O)(=O)N2C[C@@H](NCc3ccc(C(F)(F)F)cc3Cl)[C@H](c3ccccc3)C2)c1` [Example 395, (3S,4R)-N-[2-chloro-4-(trifluoromethyl)benzyl]-1-[(1-methyl-1H-imidazol-4-yl)sulfonyl]-4-phenylpyrrolidin-3-amine] the value was no more than 1 µM.

Regarding `N#Cc1ccccc1S(=O)(=O)N1C[C@@H](N)[C@H](c2ccccc2)C1` (relative stereo) [Example 527, 2-(Trans-3-amino-4-phenylpyrrolidin-1-ylsulfonyl)benzonitrile], under setting [1], the Ki is no more than 10 µM.

For `Cn1cnc(S(=O)(=O)N2C[C@@H](Nc3ccc(Cl)cc3)[C@H](c3ccccc3Cl)C2)c1` (relative stereo) [Example 254, trans-4-(2-chlorophenyl)-N-(4-chlorophenyl)-1-[(1-methyl-1H-imidazol-4-yl)sulfonyl]pyrrolidin-3-amine], the Ki under setting [1] was no more than 10 µM. As for `O=c1[nH]c2ccc(S(=O)(=O)N3CC(Nc4ccc(F)c(F)c4)C(c4ccccc4)C3)cc2[nH]c1=O` (stereo not drawn) [Example 501, 6-({3-[(3,4-difluorophenyl)amino]-4-phenylpyrrolidin-1-yl}sulfonyl)-1,4-dihydroquinoxaline-2,3-dione], the Ki under setting [1] was no more than 10 µM.

Regarding `Cn1cnc(S(=O)(=O)N2C[C@@H](Nc3cc(C(F)(F)F)ccc3F)[C@H](c3ccc(F)cc3)C2)c1` (relative stereo) [Example 169, trans-4-(4-fluorophenyl)-N-[2-fluoro-5-(trifluoromethyl)phenyl]-1-[(1-methyl-1H-imidazol-4-yl)sulfonyl]pyrrolidin-3-amine], the Ki under setting [1] was no more than 10 µM. Same read-out and setting: for `CC1CCN(S(=O)(=O)N2CC(Nc3ccc(F)c(F)c3)C(c3ccccc3)C2)CC1` (stereo not drawn) [Example 493, N-(3,4-difluorophenyl)-1-[(4-methylpiperidin-1-yl)sulfonyl]-4-phenylpyrrolidin-3-amine] the value was no more than 10 µM; for `Cn1cnc(S(=O)(=O)N2C[C@@H](N3Cc4cc(C(F)(F)F)ccc4NC3=O)[C@H](c3ccccc3)C2)c1` (relative stereo) [Example 404, 3-{Trans-1-[(1-methyl-1H-imidazol-4-yl)sulfonyl]-4-phenylpyrrolidin-3-yl}-6-(trifluoromethyl)-3,4-dihydroquinazolin-2(1H)-one], no more than 10 µM. As to `Cn1cnc(S(=O)(=O)N2CC(Cc3cccc(Cl)c3)C(c3ccc(F)cc3)C2)c1` (stereo not drawn) [Example 182, 4-{[3-(3-chlorobenzyl)-4-(4-fluorophenyl)pyrrolidin-1-yl]sulfonyl}-1-methyl-1H-imidazole], under setting [1], the Ki was no more than 0.1 µM. Same read-out and setting: for `O=S(=O)(c1ccc2c(c1)OCO2)N1CC(Nc2ccc(F)c(F)c2)C(c2ccccc2)C1` (stereo not drawn) [Example 495, 1-(1,3-benzodioxol-5-ylsulfonyl)-N-(3,4-difluorophenyl)-4-phenylpyrrolidin-3-amine] the value was greater than 10 µM.

For the molecule `CCc1ccc(S(=O)(=O)N2CC(Nc3ccc(F)c(F)c3)C(c3ccccc3)C2)s1` (stereo not drawn) [Example 492, N-(3,4-difluorophenyl)-1-[(5-ethylthiophen-2-yl)sulfonyl]-4-phenylpyrrolidin-3-amine], the inhibition constant (Ki) under setting [1] was no less than 10 µM. The same measure, in the same setting: under `Cn1cnc(S(=O)(=O)N2C[C@H](Nc3ncc(F)c(C(F)(F)F)c3F)[C@@H](c3ccccc3)C2)c1` [Example 408, 3,5-difluoro-N-{(3R,4S)-1-[(1-methyl-1H-imidazol-4-yl)sulfonyl]-4-phenylpyrrolidin-3-yl}-4-(trifluoromethyl)pyridin-2-amine] stands no more than 10 µM; under `Cn1cnc(S(=O)(=O)N2C[C@@H](NCc3cccc(F)c3)[C@H](c3ccc(F)cc3)C2)c1` (relative stereo) [Example 264, trans-N-(3-fluorobenzyl)-4-(4-fluorophenyl)-1-[(1-methyl-1H-imidazol-4-yl)sulfonyl]pyrrolidin-3-amine], no more than 1 µM. On the same count and under the same terms, under `Cn1cnc(S(=O)(=O)N2C[C@@H](Nc3ccnc(F)c3)[C@H](c3ccc(F)cc3)C2)c1` (relative stereo) [Example 239, 2-fluoro-N-{trans-4-(4-fluorophenyl)-1-[(1-methyl-1H-imidazol-4-yl)sulfonyl]pyrrolidin-3-yl} pyridin-4-amine] stands no more than 10 µM; under `Cn1cnc(S(=O)(=O)N2C[C@H](Nc3ccc(C#N)c(C(F)(F)F)c3)[C@@H](c3ccc(F)cc3)C2)c1` [Example 639, 4-({(3R,4S)-4-(4-fluorophenyl)-1-[(1-methyl-1H-imidazol-4-yl)sulfonyl]pyrrolidin-3-yl}amino)-2-(trifluoromethyl)benzonitrile], no more than 10 µM.

As for `Cn1cnc(S(=O)(=O)N2C[C@@H](Nc3cccc(OCC(F)(F)F)c3)[C@H](C3CCCO3)C2)c1` (relative stereo) [Example 819, Trans-1-[(1-methyl-1H-imidazol-4-yl)sulfonyl]-4-(tetrahydrofuran-2-yl)-N-[3-(2,2,2-trifluoroethoxy)phenyl]pyrrolidin-3-amine], the Ki (radioligand binding, recombinant CHO cell membranes expressing human GlyT1c) is no more than 0.1 µM.

As to `Cn1cnc(S(=O)(=O)N2C[C@H](NCc3ccnc(Cl)c3F)[C@@H](c3ccccc3)C2)c1` [Example 567, (3R,4S)-N-[(2-chloro-3-fluoropyridin-4-yl)methyl]-1-[(1-methyl-1H-imidazol-4-yl)sulfonyl]-4-phenylpyrrolidin-3-amine], under setting [1], the Ki is no more than 1 µM. As to `Cn1cnc(S(=O)(=O)N2C[C@H](Nc3ncnc4[nH]ccc34)[C@@H](c3ccccc3)C2)c1` [Example 406, N-{(3R,4S)-1-[(1-methyl-1H-imidazol-4-yl)sulfonyl]-4-phenylpyrrolidin-3-yl}-7H-pyrrolo[2,3-d]pyrimidin-4-amine], the Ki under setting [1] was no more than 10 µM. As to `Cn1cnc(S(=O)(=O)N2C[C@@H](Nc3ccnc(F)c3)[C@H](c3ccccc3)C2)c1` (relative stereo) [Example 236, 2-fluoro-N-{trans-1-[(1-methyl-1H-imidazol-4-yl)sulfonyl]-4-phenylpyrrolidin-3-yl}pyridin-4-amine], the Ki under setting [1] was no more than 10 µM.
